Laboratory results published in ChEMBL document CHEMBL1129023, “Nucleosides and nucleotides. 150. Enzymatic synthesis of 5-phosphatidyl derivatives of (CNDAC) and their notable antitumor effects in mice1” (1996).

How the values were obtained:
Format in all cases: functional
Mus musculus [1] = assay: Compound was evaluated for the body weight change from day 1 to day 12 against M5076 sarcoma in mice at a sc dose of 200 mg/kg/day.; conditions: route subcutaneous
Mus musculus [2] = assay: Compound was evaluated for the body weight change from day 1 to day 12 against M5076 sarcoma in mice at a sc dose of 100 mg/kg/day.; conditions: route subcutaneous
Mus musculus [3] = assay: Compound was evaluated for the percent increase in life span against M5076 sarcoma in mice at a sc dose of 200 mg/kg/day.; conditions: route subcutaneous
Mus musculus [4] = assay: Compound was evaluated for the percent increase in life span against M5076 sarcoma in mice at a sc dose of 100 mg/kg/day.; conditions: route subcutaneous
Mus musculus [5] = assay: Compound was evaluated for the tumor growth inhibition on day 21 against M5076 sarcoma implanted sc in mice at a dose of 100 mg/kg/day.; conditions: 504 h, route subcutaneous, read-out: TGI
Mus musculus [6] = assay: Compound was evaluated for the percent increase in life span against M5076 sarcoma in mice at a sc dose of 300 mg/kg/day.; conditions: route subcutaneous
Mus musculus [7] = assay: Compound was evaluated for the body weight change from day 1 to day 12 against M5076 sarcoma in mice at a sc dose of 300 mg/kg/day.; conditions: route subcutaneous
Mus musculus [8] = assay: Compound was evaluated for the tumor growth inhibition on day 21 against M5076 sarcoma implanted sc in mice at a dose of 300 mg/kg/day.; conditions: 504 h, route subcutaneous, read-out: TGI
Mus musculus [9] = assay: Compound was evaluated for the tumor growth inhibition on day 21 against M5076 sarcoma implanted sc in mice at a dose of 200 mg/kg/day.; conditions: 504 h, route subcutaneous, read-out: TGI
Mus musculus [10] = assay: Compound was evaluated for the body weight change from day 1 to day 12 against M5076 sarcoma in mice at a sc dose of 300 mg/kg/day: toxic; conditions: route subcutaneous
Mus musculus [11] = assay: Compound was evaluated for the body weight change from day 1 to day 12 against M5076 sarcoma in mice at a sc dose of 25 mg/kg/day.; conditions: route subcutaneous
Mus musculus [12] = assay: Compound was evaluated for the tumor growth inhibition on day 21 against M5076 sarcoma implanted sc in mice at a dose of 25 mg/kg/day.; conditions: 504 h, route subcutaneous, read-out: TGI
Mus musculus [13] = assay: Compound was evaluated for the tumor growth inhibition on day 21 against M5076 sarcoma implanted sc in mice at a dose of 50 mg/kg/day.; conditions: 504 h, route subcutaneous, read-out: TGI
Mus musculus [14] = assay: Compound was evaluated for the body weight change from day 1 to day 12 against M5076 sarcoma in mice at a sc dose of 50 mg/kg/day.; conditions: route subcutaneous
Mus musculus [15] = assay: Compound was evaluated for the percent increase in life span against M5076 sarcoma in mice at a sc dose of 25 mg/kg/day.; conditions: route subcutaneous
Mus musculus [16] = assay: Compound was evaluated for the percent increase in life span against M5076 sarcoma in mice at a sc dose of 50 mg/kg/day.; conditions: route subcutaneous

SMILES	Weight change (Mus musculus [1]) [g]	Weight change (Mus musculus [2]) [g]	ILS at 200 mg/kg/day (Mus musculus [3]) [%]	ILS at 100 mg/kg/day (Mus musculus [4]) [%]	inhibition in vivo at 100 mg/kg/day (Mus musculus [5]) [%]	ILS at 300 mg/kg/day (Mus musculus [6]) [%]	Weight change (Mus musculus [7]) [g]	inhibition in vivo at 300 mg/kg/day (Mus musculus [8]) [%]	inhibition in vivo at 200 mg/kg/day (Mus musculus [9]) [%]	Weight change (Mus musculus [10]) [g]	Weight change (Mus musculus [11]) [g]	inhibition in vivo at 25 mg/kg/day (Mus musculus [12]) [%]	inhibition in vivo at 50 mg/kg/day (Mus musculus [13]) [%]	Weight change (Mus musculus [14]) [g]	ILS at 25 mg/kg/day (Mus musculus [15]) [%]	ILS at 50 mg/kg/day (Mus musculus [16]) [%]
CCCCC/C=C\C/C=C\CCCCCCCC(=O)OCC(COP(=O)([O-])OC[C@H]1O[C@@H](n2ccc(N)nc2=O)[C@@H](C#N)[C@@H]1O)OC(=O)CCCCCCC/C=C\C/C=C\CCCCC.[Na+] (stereo not given in full)	1	-0.3	10	15	93	15	1									
N#C[C@H]1[C@H](O)[C@@H](CO)O[C@H]1n1ccc(N)nc1=O [TAS-109]	1.2	1.1	-7	-11	38	14	1	67	47							
CCCCCCCCCCCCCCCC(=O)OCC(COP(=O)([O-])OC[C@H]1O[C@@H](n2ccc(N)nc2=O)[C@@H](C#N)[C@@H]1O)OC(=O)CCCCCCCCCCCCCCC.[Na+] (stereo not given in full)	0	0.9	38	21	93	40	1	100	98							
CCCCCCCCCCCCCC(=O)OCC(COP(=O)([O-])OC[C@H]1O[C@@H](n2ccc(N)nc2=O)[C@@H](C#N)[C@@H]1O)OC(=O)CCCCCCCCCCCCC.[Na+] (stereo not given in full)	0.3	0.8	22	4	80	0			97	1						
CCCCCCCCCCCCCCCCCC(=O)OCC(COP(=O)([O-])OC[C@H]1O[C@@H](n2ccc(N)nc2=O)[C@@H](C#N)[C@@H]1O)OC(=O)CCCCCCCCCCCCCCCCC.[Na+] (stereo not given in full)	-0.2	1.2	49	20	88	60	-0.3	98	97							
CCCCCCCC/C=C\CCCCCCCC(=O)OCC(COP(=O)([O-])OC[C@H]1O[C@@H](n2ccc(N)nc2=O)[C@@H](C#N)[C@@H]1O)OC(=O)CCCCCCC/C=C\CCCCCCCC.[Na+] (stereo not given in full)	2	0.6	-12	13	98	-58	3				1.6	69	92	0.8	-3	7
